Test results as given in PubChem BioAssay (NCI).
Where “and” joins values, the source holds several entries; their conditions need not be identical. Identical values can stand only once.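 1) Cells in 96-well plates. 2) Compound, 48 h, 5 concentrations. 3) Linear interpolation between surrounding doses. 4) Unreached endpoint = highest concentration. GI50 = concentration required for 50% inhibition of growth. TGI denotes the concentration required for complete inhibition of growth.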

What was measured:
Test in all cases: growth of human tumour cells (NCI), 48 h
[1] = system: CCRF-CEM leukemia
[2] = system: DU-145 prostate
[3] = system: UACC-257 melanoma
[4] = system: SK-MEL-5 melanoma
[5] = system: SF-295 CNS
[6] = system: KM12 colon
[7] = system: SN12C renal
[8] = system: HOP-62 NSCLC
[9] = system: MDA-MB-231 breast
[10] = system: OVCAR-3 ovarian
[11] = system: SW-620 colon
[12] = system: OVCAR-5 ovarian
[13] = system: RPMI-8226 leukemia
[14] = system: HCT-15 colon
[15] = system: HCC-2998 colon
[16] = system: NCI-H226 lung
[17] = system: HT29 colon
[18] = system: UO-31 renal
[19] = system: K-562 leukemia
[20] = system: ACHN renal
[21] = system: A498 renal
[22] = system: HCT-116 colon
[23] = system: SR leukemia
[24] = system: U251 CNS
[25] = system: NCI-H522 lung
[26] = system: OVCAR-8 ovarian
[27] = system: SF-268 CNS
[28] = system: 786-0 renal
[29] = system: CAKI-1 renal
[30] = system: HL-60(TB) leukemia
[31] = system: MCF7 breast
[32] = system: LOX IMVI melanoma
[33] = system: NCI-H23 lung
[34] = system: UACC-62 melanoma
[35] = system: NCI/ADR-RES ovarian
[36] = system: M14 melanoma
[37] = system: EKVX NSCLC
[38] = system: T-47D breast
[39] = system: SK-OV-3 ovarian
[40] = system: SK-MEL-2 melanoma
[41] = system: SNB-19 CNS
[42] = system: IGROV1 ovarian
[43] = system: HOP-92 NSCLC
[44] = system: TK-10 renal
[45] = system: SF-539 CNS
[46] = system: RXF 393 renal
[47] = system: MDA-N
[48] = system: SNB-75 CNS
[49] = system: A549 NSCLC
[50] = system: NCI-H460 lung
[51] = system: MOLT-4 leukemia
[52] = system: PC-3 prostate
[53] = system: HS 578T breast
[54] = system: BT-549 breast
[55] = system: MDA-MB-435
[56] = system: SK-MEL-28 melanoma
[57] = system: COLO 205 colon
[58] = system: OVCAR-4 ovarian
[59] = system: MALME-3M melanoma
[60] = system: DMS 114 small cell lung
[61] = system: SNB-78 CNS
[62] = system: LXFL 529 NSCLC
[63] = system: M19-MEL melanoma
[64] = system: DLD-1 colon
[65] = system: DMS 273 small cell lung

Molecule `O=C(CCc1cc(O)cc(O)c1)NCCc1cc(OCc2ccccc2)cc(OCc2ccccc2)c1` has a TGI [1] of 50800 nM, a TGI [2] of 33.5 µM and a TGI [3] of 70 µM. For the same molecule, the TGI [4] was 25.6 µM, the TGI [5] was 25.8 µM and the TGI [6] was 28.1 µM. The TGI [7] was 35.9 µM, the TGI [8] was 36.8 µM and the TGI [9] was 39.3 µM. The TGI [10] was 52.2 µM, the TGI [11] was 53.3 µM and the TGI [12] was 39.5 µM. The TGI [13] was 54 µM, the TGI [14] was 29.8 µM and the TGI [15] was 35 µM. The TGI [16] was 51.3 µM, the TGI [17] was 41.9 µM and the TGI [18] was 15.3 µM. For the same molecule, the TGI [19] was 29.7 µM, the TGI [20] was 15.6 µM and the TGI [21] was 42.8 µM. For the same molecule, the TGI [22] was 32.2 µM, the TGI [23] was 27 µM and the TGI [24] was > 100 µM. It also gave a TGI [25] of 28.2 µM, a TGI [26] of 50.6 µM and a TGI [27] of 43.2 µM. For the same molecule, the TGI [28] was 41 µM, the TGI [29] was 36.8 µM and the TGI [30] was 12200 nM. It also gave a TGI [31] of 23.6 µM, a TGI [32] of 32 µM and a TGI [33] of 24.6 µM. The TGI [34] was 40.2 µM, the TGI [35] was 55.2 µM and the TGI [36] was 34.8 µM. The TGI [37] was 22.6 µM, the TGI [38] was 39.3 µM and the TGI [39] was 31.6 µM. For the same molecule, the TGI [40] was 28.2 µM, the TGI [41] was 7.17 µM and the TGI [42] was 31.4 µM. For the same molecule, the TGI [43] was 45.3 µM, the TGI [44] was 46.2 µM and the TGI [45] was 44.6 µM. The TGI [46] was 27.4 µM, the TGI [47] was 35 µM and the TGI [48] was 24.5 µM. For the same molecule, the TGI [49] was 23.6 µM, the TGI [50] was 14.4 µM and the TGI [51] was 22700 nM. It also gave a TGI [52] of 23.6 µM, a TGI [53] of 48.7 µM and a TGI [54] of 35.8 µM. It also gave a TGI [55] of 37.6 µM, a TGI [56] of 55 µM and a TGI [57] of 44.3 µM.

`Cc1cc(O)c2c(c1)C(=O)C=CC2=O` was tested, and the TGI [1] was 564 nM and 1190 nM, the TGI [2] was 30.8 µM and 46.7 µM and the GI50 [3] was 9.95 µM. The TGI [3] was 11.3 µM and 27.8 µM, the GI50 [4] was 7.53 µM and 2.27 µM and the TGI [4] was 22.4 µM and 6.77 µM. The TGI [5] was 32.7 µM and 39 µM, the TGI [6] was 32.9 µM and 32.5 µM and the GI50 [58] was 14.5 µM and 6.75 µM. For the same molecule, the TGI [58] was 28.8 µM and 19.5 µM, the TGI [7] was 21.9 µM and 28.6 µM and the TGI [8] was 44.7 µM and 34.2 µM. The TGI [9] was 25.3 µM and 18.6 µM, the TGI [10] was 10 µM and 10.2 µM and the GI50 [11] was 7.3 µM and 2.67 µM. The TGI [11] was 23.9 µM and 22.4 µM, the TGI [12] was 43.1 µM and 34.4 µM and the GI50 [13] was 3290 nM and 390 nM. The TGI [13] was 17.9 µM and 3.44 µM, the GI50 [14] was 7.78 µM and 3.53 µM and the TGI [14] was 24.9 µM and 9.83 µM. For the same molecule, the TGI [15] was 25.4 µM and 30 µM, the TGI [16] was 42.4 µM and 39.2 µM and the TGI [17] was 12.3 µM and 21.3 µM. The TGI [18] was 11.4 µM and 16.2 µM, the GI50 [19] was 322 nM and 1250 nM and the GI50 [20] was 4.43 µM and 4 µM. For the same molecule, the TGI [20] was 8.57 µM and 15.6 µM, the TGI [21] was 40.7 µM and 75.2 µM and the TGI [22] was 10.2 µM and > 20.2 µM. For the same molecule, the GI50 [23] was 1140 nM and 330 nM, the GI50 [24] was 14.2 µM and 5.29 µM and the TGI [24] was 33.7 µM and 23.4 µM. The GI50 [25] was 3800 nM and 1460 nM, the TGI [25] was 8.05 µM and 3.06 µM and the GI50 [26] was 14.1 µM and 4.75 µM. For the same molecule, the TGI [26] was 43.9 µM and 14.8 µM, the TGI [27] was 48.3 µM and 31.5 µM and the GI50 [28] was 5.8 µM and 2.59 µM. The TGI [28] was 12.9 µM and > 21.6 µM, the GI50 [29] was 5.57 µM and 2.21 µM and the TGI [29] was 13 µM and 6.47 µM. The GI50 [30] was 33.6 nM and 310 nM, the TGI [30] was 202 nM and 1890 nM and the TGI [31] was 11.3 µM and 21.8 µM. For the same molecule, the TGI [32] was 12.6 µM and > 100 µM, the TGI [33] was 27.9 µM and 23 µM and the TGI [34] was 18.9 µM and 25.3 µM. For the same molecule, the TGI [35] was 37 µM and 47.2 µM, the TGI [36] was 25.7 µM and 21.7 µM and the GI50 [37] was 7.46 µM and 3.6 µM. For the same molecule, the TGI [37] was 20.6 µM and 15.2 µM, the TGI [38] was 7.47 µM and 16.4 µM and the TGI [39] was > 84.2 µM. For the same molecule, the TGI [40] was 36.8 µM and 44.3 µM, the TGI [41] was 46.7 µM and 31.2 µM and the TGI [42] was 27.4 µM and 24.1 µM. For the same molecule, the GI50 [43] was 2330 nM and 2510 nM, the TGI [43] was 5.15 µM and 7.69 µM and the GI50 [44] was 5.92 µM and 12.7 µM. For the same molecule, the TGI [44] was 15.6 µM and 26.9 µM, the TGI [45] was 31.4 µM and 30.8 µM and the TGI [46] was 9.57 µM and 9.17 µM. For the same molecule, the TGI [47] was 9.13 µM and 4.68 µM, the GI50 [59] was 10.2 µM and 1.86 µM and the TGI [59] was 23.2 µM and 8.39 µM. For the same molecule, the TGI [48] was 34 µM and 30 µM, the TGI [49] was 58 µM and 42.9 µM and the TGI [50] was 45.5 µM and 31.1 µM. The TGI [51] was 1710 nM and 1610 nM, the TGI [52] was 46.3 µM and 25.5 µM and the TGI [53] was 54.6 µM and 64.3 µM. For the same molecule, the GI50 [54] was 15.5 µM and 6.9 µM, the TGI [54] was 30.3 µM and 21 µM and the GI50 [55] was 4.8 µM and 1.93 µM. The TGI [55] was 11.7 µM and 4.25 µM, the GI50 [56] was 20.4 µM and 8.89 µM and the TGI [56] was 35.5 µM and 23.6 µM. For the same molecule, the TGI [57] was 7.97 µM and > 21.2 µM.

In the case of `Cc1ccc2c(c1)CN1c3ccc(C)cc3CN2C1c1ccccc1O`, the TGI [1] is reported as > 100000 nM, the TGI [60] is reported as > 100 µM and the TGI [4] is reported as 30.5 µM. For the same molecule, the TGI [5] was > 100 µM, the TGI [6] was > 100 µM and the TGI [58] was > 100 µM. For the same molecule, the TGI [7] was > 100 µM, the TGI [8] was > 100 µM and the TGI [10] was > 100 µM. For the same molecule, the TGI [11] was > 100 µM, the TGI [12] was > 100 µM and the TGI [13] was > 100 µM. For the same molecule, the TGI [14] was > 100 µM, the TGI [16] was > 100 µM and the TGI [17] was > 100 µM. For the same molecule, the TGI [18] was 88.2 µM, the TGI [61] was > 100 µM and the TGI [19] was > 100 µM. The TGI [20] was > 100 µM, the TGI [22] was > 100 µM and the TGI [23] was > 100 µM. The TGI [24] was > 100 µM, the TGI [25] was > 100 µM and the TGI [26] was > 100 µM. The TGI [27] was > 100 µM, the TGI [28] was > 100 µM and the TGI [29] was > 100 µM. The TGI [30] was > 100000 nM, the TGI [32] was > 100 µM and the TGI [33] was > 100 µM. The TGI [34] was > 100 µM, the TGI [36] was > 100 µM and the TGI [37] was 54.9 µM. For the same molecule, the TGI [62] was > 100 µM, the TGI [39] was > 100 µM and the TGI [40] was > 100 µM. For the same molecule, the TGI [42] was > 100 µM, the TGI [43] was > 100 µM and the TGI [44] was 88.1 µM. The TGI [45] was > 100 µM, the TGI [63] was > 100 µM and the TGI [46] was 61.2 µM. For the same molecule, the TGI [64] was > 100 µM, the TGI [59] was > 100 µM and the TGI [48] was 9.08 µM. The TGI [49] was > 100 µM, the TGI [50] was > 100 µM and the TGI [51] was > 100000 nM. For the same molecule, the TGI [65] was > 100 µM, the TGI [56] was > 100 µM and the TGI [57] was > 100 µM.
